Measurements as given in patent US9695155B2, “Herbicidal substituted pyrimidinyloxy benzene compounds” (E. I. DU PONT DE NEMOURS AND COMPANY, priority 2013, dated 2017).

How the values were obtained:
[1] = test system: large (Lg) crabgrass; experiment: Test C preemergence; format: in vivo, Digitaria sanguinalis; conditions: for Crabgrass, Large plant response rating: preemergence, scale 0 (no effect) to 100 (complete control)
In short: (§1)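 Whole-plant greenhouse test with surfactant-containing solvent formulation, applied preemergence to sown loam–sand pots or postemergence to 2–18 cm plants. Scored by eye 13 to 15 days on, 0–100 scale.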

[2] = test system: wheat, winter; experiment: Test C postemergence; format: in vivo, Triticum aestivum; conditions: for Plant response rating (0 to 100), Wheat: postemergence; for Plant response rating, Wheat: Postemergence, scale 0 to 100 (0 no effect, 100 complete control)
In short: as §1

[3] = test system: chickweed; experiment: Test C postemergence; format: in vivo, Stellaria media; conditions: for Plant response rating (0 to 100), Chickweed: postemergence; for Plant response rating, Chickweed: Postemergence, scale 0 to 100 (0 no effect, 100 complete control)
In short: as §1

[4] = test system: giant foxtail; experiment: Test C postemergence; format: in vivo, Setaria faberii; conditions: for Plant response rating (0 to 100), Foxtail, Giant: postemergence; for Plant response rating, Foxtail, Giant: Postemergence, scale 0 to 100 (0 no effect, 100 complete control)
In short: as §1

[5] = test system: corn; experiment: Test C postemergence; format: in vivo, Zea mays; conditions: for Plant response rating (0 to 100), Corn: postemergence; for Plant response rating, Corn: Postemergence, scale 0 to 100 (0 no effect, 100 complete control)
In short: as §1

[6] = test system: corn; experiment: Test A preemergence; format: in vivo, Zea mays
In short: (§2)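 Injury scores run from 0, no effect, to 100, complete control, judged by eye against untreated plants roughly 10 days after treatment. Chemicals carried a surfactant in a non-phytotoxic solvent and went onto loam–sand soil preemergence or onto one- to two-leaf seedlings postemergence.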

[7] = test system: pigweed; experiment: Test C preemergence; format: in vivo, Amaranthus retroflexus; conditions: for Pigweed plant response rating: preemergence, scale 0 (no effect) to 100 (complete control)
In short: as §1

[8] = test system: sedge, umbrella; experiment: Test B flooded paddy test; format: in vivo, Cyperus difformis; conditions: Flood, 250 g ai/ha; 0 to 100 scale where 0 is no effect and 100 is complete control
In short: (§3)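 Flooded to 3 cm at the 2-leaf stage, pots received compound through the paddy water and were kept at that depth under greenhouse conditions. After 13–15 days, effect was rated by eye relative to controls, 0 = none and 100 = complete control.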

[9] = test system: large (Lg) crabgrass; experiment: Test C postemergence; format: in vivo, Digitaria sanguinalis; conditions: for Plant response rating (0 to 100), Crabgrass, Large: postemergence; for Plant response rating, Crabgrass, Large: Postemergence, scale 0 to 100 (0 no effect, 100 complete control)
In short: as §1

[10] = test system: wheat; experiment: Test A preemergence; format: in vivo, Triticum aestivum
In short: as §2

[11] = test system: barnyardgrass; experiment: Test B flooded paddy test; format: in vivo, Echinochloa crus-galli; conditions: Flood, 250 g ai/ha; 0 to 100 scale where 0 is no effect and 100 is complete control
In short: as §3

[12] = test system: lambsquarters; experiment: Test C postemergence; format: in vivo, Chenopodium album; conditions: for Plant response rating (0 to 100), Lambsquarters: postemergence; for Plant response rating, Lambsquarters: Postemergence, scale 0 to 100 (0 no effect, 100 complete control)
From the text: Seeds of plant species selected from blackgrass (Alopecurus myosuroides), Italian ryegrass (Lolium multiflorum), wheat, winter (winter wheat, Triticum aestivum), galium (catchweed bedstraw, Galium aparine), corn (Zea mays), large (Lg) crabgrass (Digitaria sanguinalis), giant foxtail (Setaria faberii), johnsongrass (Sorghum halepense), lambsquarters (Chenopodium album), morningglory (Ipomoea coccinea), yellow nutsedge (Cyperus esculentus), pigweed (Amaranthus retroflexus), ragweed (common ragweed, Ambrosia elatior), soybean (Glycine max), barnyardgrass (Echinochloa crus-galli), oilseed rape (Brassica napus), waterhemp (common waterhemp, Amaranthus rudis), kochia (Kochia scoparia), wild oat (Avena fatua), surinam grass (Brachiaria decumbens), foxtail, green (green foxtail, Setaria viridis), goosegrass (Eleusine indica), bromegrass, downy (downy bromegrass, Bromus tectorum), nightshade (eastern black nightshade, Solanum ptycanthum), cocklebur (common cocklebur, Xanthium strumarium), cupgrass, woolly (woolly cupgrass, Eriochloa villosa), bermudagrass (Cynodon dactylon), sunflower, (common oilseed sunflower, Helianthus annuus), Russian thistle (Salsola kali), and velvetleaf (Abutilon theophrasti) were planted into a blend of loam soil and sand and treated preemergence with test chemicals formulated in a non-phytotoxic solvent mixture which included a surfactant.
At the same time, plants selected from these crop and weed species and also barley, winter (winter barley, Hordeum vulgare), windgrass (Apera spica-venti), chickweed (common chickweed, Stellaria media), deadnettle (henbit deadnettle, Lamium amplexicaule), and canarygrass (littleseed canarygrass, Phalaris minor) were planted in pots containing Redi-Earth® planting medium (Scotts Company, 14111 Scottslawn Road, Marysville, Ohio 43041) comprising spaghnum peat moss, vermiculite, wetting agent and starter nutrients and treated with postemergence applications of test chemicals formulated in the same manner. Plants ranged in height from 2 to 18 cm (1- to 4-leaf stage) for postemergence treatments. Treated plants and controls were maintained in a greenhouse for 13 to 15 days, after which time all species were compared to controls and visually evaluated. Plant response ratings, summarized in Table C, are based on a scale of 0 to 100 where 0 is no effect and 100 is complete control. A dash (-) response means no test result.

[13] = test system: large (Lg) crabgrass; experiment: Test A postemergence; format: in vivo, Digitaria sanguinalis
In short: as §2

[14] = Preemergence, 31 g ai/ha, scale 0 to 100, 0 no effect, 100 complete control
[15] = 125 g ai/ha, 0 to 100 scale where 0 is no effect and 100 is complete control
[16] = 500 g ai/ha, 0 to 100 scale, 0 no effect, 100 complete control, approx. 10 days

## FC(F)(F)c1cnn(-c2ccccc2Oc2ncc(Cl)cn2)c1 [Compound 16]
[1]; 62 g ai/ha
  Crabgrass, Large plant response rating: 100
[1]; 125 g ai/ha
  Crabgrass, Large plant response rating: 100
[1]; 250 g ai/ha
  Crabgrass, Large plant response rating: 100
[1]; [14]
  Plant response rating, Crabgrass, Large: 98
[2]; 125 g ai/ha
  Plant response rating (0 to 100), Wheat: 35
[2]; 250 g ai/ha
  Plant response rating (0 to 100), Wheat: 35
[2]; 31 g ai/ha, 13 to 15 days
  Plant response rating, Wheat: 5
[2]; 62 g ai/ha
  Plant response rating, Wheat: 15
[3]; 125 g ai/ha
  Plant response rating (0 to 100), Chickweed: 75
[3]; 250 g ai/ha
  Plant response rating (0 to 100), Chickweed: 90
[3]; 31 g ai/ha, 13 to 15 days
  Plant response rating, Chickweed: 40
[3]; 62 g ai/ha
  Plant response rating, Chickweed: 65
[4]; 125 g ai/ha
  Plant response rating (0 to 100), Foxtail, Giant: 15
[4]; 250 g ai/ha
  Plant response rating (0 to 100), Foxtail, Giant: 85
[4]; 31 g ai/ha, 13 to 15 days
  Plant response rating, Foxtail, Giant: 5
[4]; 62 g ai/ha
  Plant response rating, Foxtail, Giant: 10
[5]; 125 g ai/ha
  Plant response rating (0 to 100), Corn: 10
[5]; 250 g ai/ha
  Plant response rating (0 to 100), Corn: 20
[5]; 31 g ai/ha, 13 to 15 days
  Plant response rating, Corn: 5
[5]; 62 g ai/ha
  Plant response rating, Corn: 5
[6]; [15]
  Corn plant response rating: 10
[6]; [16]
  Corn plant response rating: 30
[7]; 62 g ai/ha
  Pigweed plant response rating: 100
[7]; 125 g ai/ha
  Pigweed plant response rating: 100
[7]; 250 g ai/ha
  Pigweed plant response rating: 100
[7]; [14]
  Plant response rating, Pigweed: 100
[8]
  Plant response rating, Sedge, Umbrella: 90
[9]; 125 g ai/ha
  Plant response rating (0 to 100), Crabgrass, Large: 30
[9]; 250 g ai/ha
  Plant response rating (0 to 100), Crabgrass, Large: 85
[9]; 31 g ai/ha, 13 to 15 days
  Plant response rating, Crabgrass, Large: 10
[9]; 62 g ai/ha
  Plant response rating, Crabgrass, Large: 20
[10]; [15]
  Wheat plant response rating: 20
[10]; [16]
  Wheat plant response rating: 60
[11]
  Plant response rating, Barnyardgrass: 40
[12]; 125 g ai/ha
  Plant response rating (0 to 100), Lambsquarters: 100
[12]; 250 g ai/ha
  Plant response rating (0 to 100), Lambsquarters: 100
[12]; 31 g ai/ha, 13 to 15 days
  Plant response rating, Lambsquarters: 75
[12]; 62 g ai/ha
  Plant response rating, Lambsquarters: 100
[13]; [15]
  Plant response rating, Crabgrass, Large: 80
[13]; 500 g ai/ha, 0 to 100 scale, 0 no effect, 100 complete control
  Plant response rating, Crabgrass, Large: 100
